Assay results taken from paper PMC7734623 (Antiviral chemistry & chemotherapy, 2012).
Values after ≈ are worked out from the molar mass of the structure shown. Counter-ions that a name gives are not always drawn. Like-named read-outs stand apart in the source and are kept apart here.

Experiments:
HIV-1LAI = assay: HIV-1 replication reverse transcriptase assay in PBMC; assay type: cell-based, HIV type-1; conditions: for anti-HIV-1 activity (in words): HIV-1LAI in human PBMC
[1] = test system: primary human peripheral blood mononuclear cells
in vitro [2] = conditions: human
[3] = test system: primary human peripheral blood mononuclear cells; assay: Cytotoxicity on PBMCs; conditions: for CC50: experiment 1, PBMC
[4] = test system: A/duck/Minnesota/1525/81 (low pathogenic avian influenza H5N1); assay: microbe, parasite or virus in culture; assay type: cell-based, Influenza A virus (H5N1 low pathogenic)
in vitro [5] = conditions: dog
[6] = test system: severe acute respiratory syndrome (SARS) coronavirus (strain Urbani); assay: microbe, parasite or virus in culture; assay type: cell-based
in vitro [7] = conditions: African green monkey
[8] = test system: A/Vietnam/1203/2004 (highly pathogenic avian influenza H5N1); assay: microbe, parasite or virus in culture; assay type: cell-based, Influenza A virus (H5N1 highly pathogenic)
in vitro [9] = conditions: African green monkey; remark: listed apart in the source
[10] = test system: A/Perth/16/2009 (seasonal H3N2); assay: microbe, parasite or virus in culture; assay type: cell-based, Influenza A virus (H3N2)
[11] = test system: A/California/07/2009 (pandemic swine-origin H1N1); assay: microbe, parasite or virus in culture; assay type: cell-based, Influenza A virus (H1N1)
[12] = test system: human parainfluenza virus type 3 (isolate 14702); assay: microbe, parasite or virus in culture; assay type: cell-based
B/Florida/4/2006 = assay: microbe, parasite or virus in culture; assay type: cell-based, Influenza B virus
[13] = test system: Madin–Darby canine kidney (MDCK) cells; conditions: A/duck/Minnesota/1525/81 test
[14] = test system: Vero 76 African green monkey kidney epithelial cells
[15] = test system: MA-104 embryonic African green monkey kidney epithelial cells
[16] = Hydrolytic stability of DMSO stock solution under freezing–; conditions: multiple freezing–(re-thawing) cycles
[17] = experiment 1, PBMC, 9: fresh DMSO stock
[18] = experiment 1, PBMC, RT activity in supernatant, 9: fresh DMSO stock
[19] = Human immunodeficiency virus 1, PBMC, experiment 1, PBMC, 9: fresh DMSO stock
[20] = Human immunodeficiency virus 1, PBMC, experiment 2, PBMC, 9: fresh DMSO stock
[21] = experiment 2, PBMC, 9: fresh DMSO stock
[22] = experiment 1, DMSO stock after second FRC

## Nc1nc2ncc(CNc3ccc(C(=O)N[C@@H](CCC(=O)[O-])C(=O)[O-])cc3)nc2c(=O)[nH]1.O.O.O.O.[Na+].[Na+] [Compound 11, Disodium (2S)-2-(pteroylamino)pentanedioate×4 H2O]
HIV-1LAI
  anti-HIV-1 activity (in words): did not show any anti-HIV-1 activity
HIV-1LAI; [17]
  EC90: > 100 µM
HIV-1LAI; [18]
  EC50: > 100 µM
[1]
  CC50: > 100 µM

## Cc1cn([C@H]2C[C@H](N=[N+]=[N-])[C@@H](CO)O2)c(=O)[nH]c1=O [AZT, 3′-azido-3′-deoxythymidine, reference compound]
In vitro [2]
  CC50: > 100 µM
HIV-1LAI; [19]
  EC90: 0.031 µM
HIV-1LAI; [20]
  EC50: 0.0091 µM
  EC90: 0.047 µM
HIV-1LAI; experiment 1
  SI50 (selectivity index CC50/EC50): >22,727
HIV-1LAI; experiment 2
  SI50 (selectivity index CC50/EC50): >10,989
[1]; human
  CC50: > 100 µM

## Nc1nc2ncc(CNc3ccc(C(=O)N[C@@H](CCC(=O)O)C(=O)O)cc3)nc2c(=O)[nH]1.O.O [Compound 8, L-folic acid dihydrate, reference compound]
[3]
  toxicity in PBMC (in words): exhibited toxicity
  CC50: 25.7 µM
HIV-1LAI
  anti-HIV-1 activity (in words): did not show any anti-HIV-1 activity
HIV-1LAI; [21]
  EC50: > 100 µM
  EC90: > 100 µM

## CC(=NC12CC3CC(CC(C3)C1)C2)c1ccc(F)cc1 [Compound 4, 1-(4-Fluorophenyl)ethanone – tricyclo[3.3.1.1^3,7]dec-1-ylazanylidene (1:1)]
HIV-1LAI
  anti-HIV-1 activity (in words): did not show any anti-HIV-1 activity
HIV-1LAI; [17]
  EC90: > 100 µM
HIV-1LAI; [18]
  EC50: > 100 µM
[1]
  CC50: > 100 µM

## CCC(CC)O[C@@H]1C=C(C(=O)O)C[C@H](N)[C@H]1NC(C)=O [oseltamivir carboxylate, (3R,4R,5S)-4-(acetylamino)-5-amino-3-(pentan-3-yloxy)cyclohex-1-ene-1-carboxylic acid, reference compound]
[4]; Influenza A virus, H5N1, MDCK
  EC50: 0.061 µg/mL
In vitro [5]
  CC50: > 10 µg/mL

## O=C([O-])CC[C@H](NC(=O)c1ccc(NCc2cnc3nc([N-]c4nc5ncc(CNc6ccc(C(=O)N[C@@H](CCC(=O)[O-])C(=O)[O-])cc6)nc5c(=O)[nH]4)[nH]c(=O)c3n2)cc1)C(=O)[O-].[Na+].[Na+].[Na+].[Na+].[Na+] [Compound 10, Pentasodium (2S,2′S)-2,2′-{azanidediylbis[(4-{[(4-oxo-3,4-dihydropteridine-2,6-diyl)methyl]amino}benzoyl)amino]}dipentanedioate×3 H2O×2.5 acetone]
[3]
  CC50: > 100 µM
HIV-1LAI
  anti-HIV-1 activity (in words): did not show any anti-HIV-1 activity
HIV-1LAI; [17]
  EC90: > 100 µM
HIV-1LAI; [18]
  EC50: > 100 µM

## CC(C)C[C@H](NC(=O)OCc1ccccc1)C(=O)NC(CCC(=O)N(C)C)C(=O)CF (mixture of isomers) [EP128533, (4RS)-4-[N-(benzyloxycarbonyl)-L-leucylamino]-6-fluoro-5-oxohexanoic acid N,N-dimethylamide, reference compound]
[6]; Severe acute respiratory syndrome-related coronavirus, Vero 76
  EC50: 1.3 µg/mL
In vitro [7]
  CC50: > 100 µg/mL

## NC(=O)c1ncn([C@@H]2O[C@H](CO)[C@@H](O)[C@H]2O)n1 [ribavirin, 1-β-D-ribofuranosyl-1H-1,2,4-triazole-3-carboxamide, reference compound]
[8]; Influenza A virus, H5N1, MDCK
  EC50: 9.4 µg/mL (≈ 38.5 µM)
[4]; Influenza A virus, H5N1, MDCK
  EC50: 5.4 µg/mL
In vitro [5]
  CC50: > 100 µg/mL
In vitro [9]
  CC50: 190 µg/mL (≈ 778 µM)
[10]; Influenza A virus, H3N2, MDCK
  EC50: 2.9 µg/mL (≈ 11.9 µM)
[11]; Influenza A virus, H1N1, MDCK
  EC50: 4.2 µg/mL (≈ 17.2 µM)
[12]; Human respirovirus 3, MA104
  EC50: 14 µg/mL (≈ 57.3 µM)
B/Florida/4/2006; Influenza B virus, MDCK
  EC50: 3.9 µg/mL (≈ 16 µM)

## NC12CC3CC(CC(C3)C1)C2 [1 ×HCl, 1-Adamantanammonium chloride, reference compound]
In vitro [2]
  CC50: > 100 µM
HIV-1LAI
  anti-HIV-1 activity (in words): did not show any anti-HIV-1 activity
HIV-1LAI; [19]
  EC90: > 100 µM
HIV-1LAI; experiment 1
  SI50 (selectivity index CC50/EC50): >1.1

## Cl.O=C(CNC12CC3CC(CC(C3)C1)C2)c1ccc(F)cc1 [Compound 12, 1-(4-Fluorophenyl)-2-(tricyclo[3.3.1.1^3,7]dec-1-ylamino) ethanone hydrochloride×0.11 H2O]
[8]; A/Vietnam/1203/2004
  inhibition of virus replication (in words): inactive
[8]; A/Vietnam/1203/2004, MDCK (≤42 CCID50), neutral red
  EC50: 50 µg/mL
[13]
  CC50: 35 µg/mL
[14]
  CC50: >100 µg/mL
[4]; A/duck/Minnesota/1525/81 (H5N1), amantadine-susceptible
  inhibition of virus replication (in words): did inhibit
[4]; A/duck/Minnesota/1525/81, MDCK (25 CCID50), neutral red
  EC50: 0.95 µg/mL
[4]; low pathogenic H5N1 A/duck/Minnesota/1525/81
  EC50: 2920 nM
[15]
  CC50: 49 µg/mL
HIV-1LAI
  anti-HIV-1 activity (in words): did not show any anti-HIV-1 activity
HIV-1LAI; [17]
  EC90: > 100 µM
HIV-1LAI; [18]
  EC50: > 100 µM
[10]
  EC50: >37 µg/mL
  inhibition of virus replication (in words): inactive
[11]
  EC50: >36 µg/mL
  inhibition of virus replication (in words): inactive
[6]; SARS coronavirus
  inhibition of virus replication (in words): did not inhibit
[6]; Urbani, Vero 76 (130 CCID50), neutral red
  EC50: 92 µg/mL
[12]
  EC50: >49 µg/mL
  inhibition of virus replication (in words): did not inhibit
[16]
  activity of DMSO stock solution during multiple FRCs (in words): did not lose activity
[1]
  CC50: > 100 µM
B/Florida/4/2006
  EC50: >50 µg/mL
  inhibition of virus replication (in words): inactive

## [1,4-Bis(4-hydroxyphenyl)butane-1,4-dione – 1,4-bis(4-methoxyphenyl)butane-1,4-dione (7) – (2S,2′S)-2,2′-{[(tricyclo[3.3.1.1^3,7]dec-1-ylamino)methanediyl] bis(pteroylimino)}dipentanedioic acid (0.2:1:1)]×3 H2O×0.4 acetone [Compound 9]
HIV-1LAI; DMSO stock after first FRC
  antiretroviral activity after first FRC (in words): seriously affected
HIV-1LAI; DMSO stock after second FRC
  antiretroviral activity after second FRC (in words): completely lost
HIV-1LAI
  anti-HIV-1 activity (in words): effective inhibitor
HIV-1LAI; experiment 1, DMSO stock after first FRC
  EC90: 57.7 µM
HIV-1LAI; experiment 1, DMSO stock after first freezing-(re-thawing) cycle (FRC)
  EC50: 32.7 µM
HIV-1LAI; [22]
  EC50: > 100 µM
  EC90: > 100 µM
HIV-1LAI; [17]
  EC90: 34.2 µM
HIV-1LAI; [18]
  EC50: 3.5 µM
HIV-1LAI; [21]
  EC50: 10.8 µM
  EC90: 34.8 µM
